Test results published in patent publication US6228602A, “Competitive apo-peroxidase assay” (Bayer Corporation, priority 1999, dated 2001).

Legend:
[1] = molecular target: Apoglucose oxidase; settings: apoglucose oxidase and FAD; U.S. Pat. No. 4,493,890; read-out: binding constant; cited from earlier work
[2] = molecular target: T1, apo-POD (Armoracia rusticana, UniProt P00433); test: Interference study with peroxidase detecting dry reagent (Example III); type: biochemical, horse radish
T1 construct: purchased Sigma Chemical Company, St. Louis, Mo
T1 sequence (P00433 31-353): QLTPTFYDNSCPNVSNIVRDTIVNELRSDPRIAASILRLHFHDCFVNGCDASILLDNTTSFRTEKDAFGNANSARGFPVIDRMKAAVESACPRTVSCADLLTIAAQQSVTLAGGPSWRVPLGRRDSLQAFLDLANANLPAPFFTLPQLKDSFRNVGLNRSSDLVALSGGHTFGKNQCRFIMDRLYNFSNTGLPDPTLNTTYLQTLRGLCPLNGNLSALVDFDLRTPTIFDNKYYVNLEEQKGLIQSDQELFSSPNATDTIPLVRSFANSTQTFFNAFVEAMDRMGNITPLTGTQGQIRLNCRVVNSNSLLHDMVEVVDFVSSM
Experimental: In this example, a peroxidase detecting dry reagent with resistance to 0.81 mg/dL hemoglobin (or myoglobin) and 25 mg/dL ascorbate and sufficient sensitivity to detect apo-peroxidase reactivation was used. […]
The reagent was tested by dipping it into solutions containing the interfering substance with and without Fe hematin. […]

[3] = molecular target: T2, apo-Hb (Homo sapiens, UniProt P68871+P69905); test: Metal porphyrin study: reactivation of apo-hemoglobin (Example IV); type: biochemical; settings: 12 μM apo-Hb, 12 μM metal porphyrin, HEMASTIX no lepidine/pH 7.5
T2 construct: made in house
T2 sequence (P69905 2-142 limits assumed): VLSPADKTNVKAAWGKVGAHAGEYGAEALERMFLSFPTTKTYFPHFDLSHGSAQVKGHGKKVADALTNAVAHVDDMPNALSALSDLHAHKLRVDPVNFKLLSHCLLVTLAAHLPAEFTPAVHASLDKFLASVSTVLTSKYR
T2 sequence (P68871 2-147 limits assumed): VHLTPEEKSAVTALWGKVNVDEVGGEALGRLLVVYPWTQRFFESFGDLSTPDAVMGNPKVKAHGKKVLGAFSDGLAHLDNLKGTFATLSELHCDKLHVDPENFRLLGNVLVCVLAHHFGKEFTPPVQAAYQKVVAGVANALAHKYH
Experimental: (§1) In this example, other metal porphyrins were tested for their ability to reactivate different types of apo-peroxidases. Metals such as Fe, Cu, Mg, Zn, Ni, Mn, Co and Pd were complexed to hematin and added to the peroxidase detecting agent. Metals such as Mn, Fe, Cu and Co and porphyrins other than hematin, i.e. deuteroporphyrin and coproporphyrin were also shown to provide the desired response.
A 0.7% solution of hemoglobin was lowered to pH 1.5 and the resulting solution was ultrafiltered through a 10 KDa cutoff membrane followed by several changes of water. Filtered material was reconstituted into water. The apo-hemoglobin passed […]. […] It produced a HEMASTIX® result of +++++ indicating a high concentration of hemoglobin.

[4] = molecular target: T1, apo-POD; test: Metal porphyrin study: reactivation of apo-peroxidase (Example IV); type: biochemical, horse radish; settings: 12 μM apo-POD, 12 μM metal porphyrin, HEMASTIX no lepidine/pH 7.5
Experimental: as §1

[5] = Metal porphyrin study: metal porphyrin in water without apo-enzyme (Example IV); type: biochemical; settings: 12 μM metal porphyrin, HEMASTIX no lepidine/pH 7.5
Experimental: as §1

Row | Compound | Kd [1] | % R response, mean ([2]; +3.6 μM Fe Hematin, HEMASTIX (lepidine/pH 6.3), Water) | % R response, mean ([2]; +3.6 μM Fe Hematin, HEMASTIX (no lepidine/pH 7.5), Water) | % R response, mean ([2]; +12 μM Fe Hematin/12 μM apo-POD, HEMASTIX (lepidine/pH 6.3), Water) | % R response, mean ([2]; +12 μM Fe Hematin/12 μM apo-POD, HEMASTIX (no lepidine/pH 7.5), 25 mg/dL Ascorbic) | % R response, mean ([2]; +12 μM Fe Hematin/12 μM apo-POD, HEMASTIX (no lepidine/pH 7.5), Water) | % R response, mean ([2]; +12 μM Fe Hematin, HEMASTIX (lepidine/pH 6.3), 25 mg/dL Ascorbic) | % R response, mean ([2]; +12 μM Fe Hematin, HEMASTIX (lepidine/pH 6.3), Water) | % R response, mean ([2]; +12 μM Fe Hematin, HEMASTIX (no lepidine/pH 7.5), 25 mg/dL Ascorbic) | % R response, mean ([2]; +12 μM Fe Hematin, HEMASTIX (no lepidine/pH 7.5), Water) | % R response, mean ([2]; +36 μM Fe Hematin, HEMASTIX (lepidine/pH 6.3), Water) | % R @ 90 second read time on CLINITEK-200+, mean [3] | % R @ 90 second read time on CLINITEK-200+, mean [4] | % R @ 90 second read time on CLINITEK-200+, mean [5]
1 | Cc1cc2nc3c(=O)[nH]c(=O)nc-3n(C[C@H](O)[C@H](O)[C@H](O)COP(=O)(O)OP(=O)(O)OC[C@H]3O[C@@H](n4cnc5c(N)ncnc54)[C@H](O)[C@@H]3O)c2cc1C [FAD, flavin adenine dinucleotide] | ~0.1 nM |  |  |  |  |  |  |  |  |  |  |  |  | 
2 | C=CC1=C(C)c2cc3[n-]c(cc4[n-]c(cc5nc(cc1n2)C(C)=C5C=C)c(C)c4CCC(=O)O)c(CCC(=O)O)c3C.O.[Fe+2] [Fe Hematin] |  | 8.8% | 79.2% | 4.1% | 55.3% | 54.0% | 5.3% | 6.4% | 73.2% | 72.4% | 3.1% | 45.3 % R | 50.9 % R | 71.5 % R
